Here are results for 37 compounds from patent US20240376089A1, “3-HYDROXY-5-(ISOXAZOL-5-YL) PYRIDINE FORMYLGLYCINE COMPOUNDS, PREPARATION METHOD, PHARMACEUTICAL COMPOSITION AND USE” (CHINA PHARMACEUTICAL UNIVERSITY, priority 2022, published 2024).

Like-named read-outs stand apart in the source and are kept apart here.

One experiment relates to HepG2 cell. Put plainly: Cellular lipid-lowering level detection (oleic acid-induced cellular hyperlipidemia model, triglyceride content). In kind it is cell-based, human. The conditions noted are these: HepG2 cells, drug treatment 24 h. How it is done: The lipid-lowering ability at the cellular level was confirmed by detecting triglyceride levels of hyperlipidemia cells to determine whether the compounds have the ability to improve hyperlipidemia at the cellular level (J. Med. Chem. 2021, 64(5), 2815-2828). This experiment adopted a human liver cancer cell, HepG2 cell. After a cellular hyperlipidemia model was induced by oleic acid, the cells were incubated and treated with a drug for 24 h. Then, the cells were lysed by ultrasonication, and the content of triglyceride was detected according to the instructions of a triglyceride kit.

A further experiment has as its target FIH (Homo sapiens (Human), UniProt Q9NWT6). The experiment is described as follows: Inhibitory activities of compounds on FIH, fluorescence polarization (FP assay). The class given is binding. How it is done:
The compounds were serially diluted in an assay buffer to 12 concentration gradients, and then 20 μL of diluted 300 nM FIH protein was added to each well. […] The plate was incubated at room temperature for 1 h and scanned with a Synergy plate reader. The excitation wavelength was set to 485 nm, and the emission wavelength was set to 535 nm. […] The obtained data were imported into Graphpad prism 8.0 for analysis and fit to obtain IC50 values.
In general terms: In fluorescence polarisation assays a small probe gives low polarisation when free and higher when bound to something large.

Where [1] appears, read: FP competition with FITC-HIF-1α 788-822, Table 1, read-out: FIH IC50.
The mark [2] stands for this setting: Table 2, comparison compounds, read-out: FIH (IC50 nM), compound where position 5 of pyridine is linked to other structures.

As usually defined, the IC50 is the concentration that inhibits the measured activity by half.

Sequence of FIH (Q9NWT6 whole entry): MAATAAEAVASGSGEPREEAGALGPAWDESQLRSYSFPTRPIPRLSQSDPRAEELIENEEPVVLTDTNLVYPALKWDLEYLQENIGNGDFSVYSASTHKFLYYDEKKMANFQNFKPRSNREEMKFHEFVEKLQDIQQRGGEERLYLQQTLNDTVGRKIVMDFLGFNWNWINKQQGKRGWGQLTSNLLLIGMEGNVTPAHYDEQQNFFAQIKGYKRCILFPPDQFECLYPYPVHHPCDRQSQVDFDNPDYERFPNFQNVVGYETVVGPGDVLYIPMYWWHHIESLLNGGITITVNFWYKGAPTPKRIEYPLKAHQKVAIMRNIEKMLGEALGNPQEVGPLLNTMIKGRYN

On to `O=C(O)CNC(=O)c1ncc(-c2cccc(Cl)c2)cc1O` [AKB-6548, reference compound], for which the “Whether or not it can improve cellular hyperlipidemia” value with HepG2 cell was “No”.
`O=C(O)CNC(=O)c1ncc(-c2cc(-c3ccccc3)no2)cc1O` [Compound I-1, 3-Hydroxy-5-(3-phenylisoxazol-5-yl)picolinoyl glycine]: in the experiment on HepG2 cell, the “Whether or not it can improve cellular hyperlipidemia” value was “Yes”.
`Cc1cccc(-c2cc(-c3cnc(C(=O)NCC(=O)O)c(O)c3)on2)c1` [Compound I-2, 3-Hydroxy-5-(3-m-tolylisoxazol-5-yl)picolinoyl glycine]: in the experiment on HepG2 cell, the “Whether or not it can improve cellular hyperlipidemia” value is reported as “Yes”.
On the same count and under the same terms, for `O=C(O)CNC(=O)c1ncc(-c2cc(-c3ccc(-c4ccccc4)cc3)no2)cc1O` [Compound I-3, 3-Hydroxy-5-(3-biphenylisoxazol-5-yl)picolinoyl glycine] the value was “Yes”; for `COc1cccc(-c2cc(-c3cnc(C(=O)NCC(=O)O)c(O)c3)on2)c1` [Compound I-4, 3-Hydroxy-5-(3-m-methoxyphenylisoxazol-5-yl)picolinoyl glycine], “Yes”; for `O=C(O)CNC(=O)c1ncc(-c2cc(-c3cccc(Cl)c3)no2)cc1O` [Compound I-5, 3-Hydroxy-5-(3-m-chlorophenylisoxazol-5-yl)picolinoyl glycine], “Yes”.
On to `O=C(O)CNC(=O)c1ncc(-c2cc(-c3cccc(Br)c3)no2)cc1O` [Compound I-6, 3-Hydroxy-5-(3-m-bromophenylisoxazol-5-yl)picolinoyl glycine], for which the “Whether or not it can improve cellular hyperlipidemia” value with HepG2 cell is given as “Yes”.
Turning to `O=C(O)CNC(=O)c1ncc(-c2cc(C3CCCCC3)no2)cc1O` [Compound I-7, 3-Hydroxy-5-(3-cyclohexylisoxazol-5-yl)picolinoyl glycine], the “Whether or not it can improve cellular hyperlipidemia” value with HepG2 cell is “Yes”.
In the case of `O=C(O)CNC(=O)c1ncc(-c2cc(C3CC3)no2)cc1O` [Compound I-8, 3-Hydroxy-5-(3-cyclopropylisoxazol-5-yl)picolinoyl glycine], the “Whether or not it can improve cellular hyperlipidemia” value in the experiment with HepG2 cell was “Yes”.
Take `N#Cc1cccc(-c2cc(-c3cnc(C(=O)NCC(=O)O)c(O)c3)on2)c1` [Compound I-9, 3-Hydroxy-5-(3-m-cyanophenylisoxazol-5-yl)picolinoyl glycine]: in the experiment with HepG2 cell, the “Whether or not it can improve cellular hyperlipidemia” value is “Yes”.
Take `O=C(O)CNC(=O)c1ncc(-c2cc(-c3cccc(C(F)(F)F)c3)no2)cc1O` [Compound I-10, 3-Hydroxy-5-(3-m-trifluoromethylphenylisoxazol-5-yl)picolinoyl glycine]: the “Whether or not it can improve cellular hyperlipidemia” value in the experiment with HepG2 cell is reported as “Yes”.
Still for that read-out and setting: the same measure for `O=C(O)CNC(=O)c1ncc(-c2cc(-c3cccc4ccccc34)no2)cc1O` [Compound I-11, 3-Hydroxy-5-(3-(naphthyl-1-yl)isoxazol-5-yl)picolinoyl glycine]: “Yes”.
In the case of `O=C(O)CNC(=O)c1ncc(-c2cc(-c3ccc4ccccc4c3)no2)cc1O` [Compound I-12, 3-Hydroxy-5-(3-(naphthyl-2-yl)isoxazol-5-yl)picolinoyl glycine], the “Whether or not it can improve cellular hyperlipidemia” value in the experiment with HepG2 cell is “Yes”.
Same read-out and setting: the same measure for `Cc1ccccc1-c1cc(-c2cnc(C(=O)NCC(=O)O)c(O)c2)on1` [Compound I-13, 3-Hydroxy-5-(3-o-tolylisoxazol-5-yl)picolinoyl glycine]: “Yes”; for `Cc1ccc(-c2cc(-c3cnc(C(=O)NCC(=O)O)c(O)c3)on2)cc1` [Compound I-14, 3-Hydroxy-5-(3-p-tolylisoxazol-5-yl)picolinoyl glycine]: “Yes”; for `Cc1cc(C)cc(-c2cc(-c3cnc(C(=O)NCC(=O)O)c(O)c3)on2)c1` [Compound I-15, 3-Hydroxy-5-(3-m-dimethylphenylisoxazol-5-yl)picolinoyl glycine]: “Yes”.
For the compound `O=C(O)CNC(=O)c1ncc(-c2cc(-c3cccc(F)c3)no2)cc1O` [Compound I-16, 3-Hydroxy-5-(3-m-fluorophenylisoxazol-5-yl)picolinoyl glycine], the “Whether or not it can improve cellular hyperlipidemia” value with HepG2 cell is listed as “Yes”.
Take `O=C(O)CNC(=O)c1ncc(-c2cc(-c3ccccc3Cl)no2)cc1O` [Compound I-17, 3-Hydroxy-5-(3-o-chlorophenylisoxazol-5-yl)picolinoyl glycine]: the “Whether or not it can improve cellular hyperlipidemia” value in the experiment with HepG2 cell is on record as “Yes”.
Take `O=C(O)CNC(=O)c1ncc(-c2cc(-c3ccc(Cl)cc3)no2)cc1O` [Compound I-18, 3-Hydroxy-5-(3-p-chlorophenylisoxazol-5-yl)picolinoyl glycine]: the “Whether or not it can improve cellular hyperlipidemia” value in the experiment with HepG2 cell is recorded as “Yes”.
Same read-out and setting: the same measure for `O=C(O)CNC(=O)c1ncc(-c2cc(-c3cc(Cl)cc(Cl)c3)no2)cc1O` [Compound I-19, 3-Hydroxy-5-(3-m-dichlorophenylisoxazol-5-yl)picolinoyl glycine]: “Yes”.
On the same count and under the same terms, the same measure for `O=C(O)CNC(=O)c1ncc(-c2cc(-c3ccccc3Br)no2)cc1O` [Compound I-20, 3-Hydroxy-5-(3-o-bromophenylisoxazol-5-yl)picolinoyl glycine]: “Yes”.
For the compound `O=C(O)CNC(=O)c1ncc(-c2cc(-c3ccc(Br)cc3)no2)cc1O` [Compound I-21, 3-Hydroxy-5-(3-p-bromophenylisoxazol-5-yl)picolinoyl glycine], in the experiment on HepG2 cell, the “Whether or not it can improve cellular hyperlipidemia” value is “Yes”.
As to `O=C(O)CNC(=O)c1ncc(-c2cc(-c3ccccc3C(F)(F)F)no2)cc1O` [Compound I-22, 3-Hydroxy-5-(3-o-trifluoromethylphenylisoxazol-5-yl)picolinoyl glycine], the “Whether or not it can improve cellular hyperlipidemia” value in the experiment on HepG2 cell is on record as “Yes”.
Same read-out and setting: for `O=C(O)CNC(=O)c1ncc(-c2cc(-c3ccc(C(F)(F)F)cc3)no2)cc1O` [Compound I-23, 3-Hydroxy-5-(3-p-trifluoromethylphenylisoxazol-5-yl)picolinoyl glycine] the value was “Yes”.
`O=C(O)CNC(=O)c1ncc(-c2cc(-c3ccccc3F)no2)cc1O` [Compound I-24, 3-Hydroxy-5-(3-o-fluorophenylisoxazol-5-yl)picolinoyl glycine]: on FIH (setting [1]), the IC50 was found to be 799 ± 8.6 nM. Further, the “Whether or not it can improve cellular hyperlipidemia” value in the experiment on HepG2 cell is “Yes”.
Taken in the same sequence, the figures for `O=C(O)CNC(=O)c1ncc(-c2cc(-c3ccc(F)cc3)no2)cc1O` [Compound I-25, 3-Hydroxy-5-(3-p-fluorophenylisoxazol-5-yl)picolinoyl glycine] were 540 ± 1.8 nM and “Yes”.
As to `O=C(O)CNC(=O)c1ncc(-c2cc(-c3cc(F)cc(F)c3)no2)cc1O` [Compound I-26, 3-Hydroxy-5-(3-m-difluorophenylisoxazol-5-yl)picolinoyl glycine], in the experiment on HepG2 cell, the “Whether or not it can improve cellular hyperlipidemia” value was “Yes”.
Turning to `CC(C)(C)c1cccc(-c2cc(-c3cnc(C(=O)NCC(=O)O)c(O)c3)on2)c1` [Compound I-27, 3-Hydroxy-5-(3-m-tert-butylphenylisoxazol 5-yl)picolinoyl glycine], the IC50 at FIH (setting [1]) is 782 ± 9.6 nM. In the experiment with HepG2 cell, the “Whether or not it can improve cellular hyperlipidemia” value was “Yes”.
For `Cc1nc(C(=O)NCC(=O)O)c(O)cc1-c1cc(-c2ccccc2)no1` [Compound I-28, 3-Hydroxy-5-(3-phenylisoxazol-5-yl)-6-methylpicolinoyl glycine] the same measures were 991 ± 12.3 nM and “Yes”.
As to `Cc1c(-c2ccccc2)noc1-c1cnc(C(=O)NCC(=O)O)c(O)c1` [Compound I-29, 3-Hydroxy-5-(4-methyl-3-phenylisoxazol-5-yl)picolinoyl glycine], the IC50 on FIH (setting [1]) was 1010 ± 25.1 nM. In addition, in the experiment on HepG2 cell, the “Whether or not it can improve cellular hyperlipidemia” value is given as “Yes”.
Take `CC(C)(C)c1c(-c2ccccc2)noc1-c1cnc(C(=O)NCC(=O)O)c(O)c1` [Compound I-30, 3-Hydroxy-5-(4-tert-butyl-3-phenylisoxazol-5-yl)picolinoyl glycine]: the IC50 at FIH (setting [1]) amounted to 1210 ± 22.9 nM. Moreover, in the experiment with HepG2 cell, the “Whether or not it can improve cellular hyperlipidemia” value is “Yes”.
For `O=C(O)CNC(=O)c1ncc(-c2onc(-c3ccccc3)c2C2CC2)cc1O` [Compound I-31, 3-Hydroxy-5-(4-cyclopropyl-3-phenylisoxazol-5-yl)picolinoyl glycine] the same measures were 1920 ± 14.5 nM and “Yes”.
For `O=C(O)CNC(=O)c1ncc(-c2onc(-c3ccccc3)c2C2CCCCC2)cc1O` [Compound I-32, 3-Hydroxy-5-(4-cyclohexyl-3-phenylisoxazol-5-yl) picolinoyl glycine] the same measures were 998 ± 10.9 nM and “Yes”.
For `O=C(O)CNC(=O)c1ncc(-c2onc(-c3ccccc3)c2-c2ccccc2)cc1O` [Compound I-33, 3-Hydroxy-5-(3,4-diphenylisoxazol-5-yl)picolinoyl glycine] the same measures were 787 ± 9.5 nM and “Yes”.
As for `O=C(O)CNC(=O)c1ncc(-c2cn(-c3ccccc3)nn2)cc1O` [reference compound], the IC50 at FIH (setting [2]) is 19590 ± 43.8 nM.
On the same count and under the same terms, for `O=C(O)CNC(=O)c1ncc(-c2cc(-c3ccccc3)co2)cc1O` [reference compound] the value was 9024 ± 36.1 nM; for `O=C(O)CNC(=O)c1ncc(-c2cc(-c3ccccc3)n[nH]2)cc1O` [reference compound], 22250 ± 56.3 nM.
